Data reported in article PMC12332266 (Frontiers in Pharmacology, 2025).
Like-named read-outs stand apart in the source and are kept apart here.

Legend:
[1] = tested on: hiPSC-CM (iCell Cardiomyocytes^2); experiment: RTCA CardioECR assessment (impedance and electrophysiology parameters); settings: for RTCA, MEC (CI): change ≥20%, Table 2
Protocol: (§1) Culture media change was performed every 2 days.
After seeding on fibronectin-coated xCELLigence ePlates (Agilent Technologies, Inc. Santa Clara, CA, USA), iCell^2 CM were monitored continuously through impedance electrodes. The following impedance parameters were measured: Cell Index (CI, measure of cell “health” and monolayer integrity), beating rate (BR) and amplitude (CI Amplitude, magnitude of contraction). Electrophysiology-like parameters (Field Potential Duration (FPD), considered as a surrogate for QT in in vivo studies, and Spike Amplitude (SA), depolarization induced by Na^+ channel opening) were measured starting from day 4–6, following the monolayer formation. […] All RTCA CardioECR data were double normalized (DMSO control and the baseline) with no further statistical group comparison for the normalized parameters. The variability of the data within the treatment groups was assessed by standard deviation.

[2] = tested on: hiPSC-CM (iCell Cardiomyocytes^2); experiment: Intracellular miRNA expression by RT-qPCR in hiPSC-CM pellets after 72-hour treatment; settings: for fold induction at 0.1 µM / fold induction at 0.3 µM / fold induction at 1 µM / fold induction at 3 µM: Homo sapiens, 72 h
Protocol: as §1
Total RNA was extracted from hiPSC-CM using the miRNeasy 96 Kit (Qiagen, Hilden, Germany) following the manufacturer’s recommendations. After the extraction, RNA purity was assessed by NanoDrop™ 8000 Spectrophotometer (Thermo Fisher Scientific Inc.). 5–10 ng/μL of RNA per sample were reverse transcribed and pre-amplified by using the TaqMan™ Advanced miRNA cDNA Synthesis Kit (Thermo Fisher Scientific Inc.). The synthesized cDNA was used for RT-qPCR with selected TaqMan™ assays (Thermo Fischer Scientific Inc.). RT-qPCR was carried out following the Applied Biosciences TaqMan miRNA expression assay protocol on a ViiA7 instrument (Thermo Fisher Scientific, Inc.). […] Therefore, to maximize the number of drugs and concentrations, explored in the same study, we pooled the triplicates for intracellular profiling of miRNAs. Therefore, no statistical analysis was performed on the data of miRNA profiling in the pellets of hiPSC-CM.
Following RTCA CardioECR assessment, hiPSC-CM cell pellets were collected, and total RNA was extracted and purified to investigate miRNAs upregulation by RT-qPCR. […] For the initial assessment of intracellular miRNAs in 12 different treatments, encompassing various drug classes, we used a panel of 17 miRNAs, which we selected from the publicly available data focusing mainly on in vitro models and structural cardiotoxicants (Supplementary Table S2).

[3] = ref extensive literature search, cited from earlier work
[4] = read-out: hsa-miR-7-5p fold change
[5] = read-out: hsa-miR-29a-5p fold change
[6] = read-out: hsa-miR-96-5p fold change
[7] = read-out: hsa-miR-126-3p fold change
[8] = read-out: hsa-miR-133b fold change
[9] = read-out: hsa-miR-146b-5p fold change
[10] = read-out: hsa-miR-182-5p fold change
[11] = read-out: hsa-miR-185-3p fold change
[12] = read-out: hsa-miR-187-3p fold change
[13] = read-out: hsa-miR-208b-3p fold change
[14] = read-out: hsa-miR-365a-5p fold change

With `COc1cccc2c1C(=O)c1c(O)c3c(c(O)c1C2=O)C[C@@](O)(C(=O)CO)C[C@@H]3O[C@H]1C[C@H](N)[C@@H](O)[C@H](C)O1` [Epirubicin] the “RTCA, MEC (CI)” value ([1]; hiPSC-CM) was 0.3 µM (CI, BR (Q)), the “Beating Rate MEC” value ([1]; human, 72 h) was 0.3 µM and the “Beating rate (BR) MEC” value ([1]; human, 72 h) was 0.3 µM. The “Contractility Amplitude MEC” value ([1]; human, 72 h) was 0.3 µM, the “Field Potential Duration MEC” value ([1]; human, 72 h) was 0.3 µM and the “RTCA, MEC (BR)” value ([1]; human, 72 h) was 0.3 µM (CI, BR (Q)). For the same compound, the “Spike Amplitude (SA) MEC” value ([1]; human, 72 h) was 0.3 µM, the “miRNAs hiPSC-CM pellet, MEC overall” value [2] was 0.3 µM and the “miRNAs upregulated at the MEC overall (hiPSC-CM pellet)” value [2] was “miR-7-5p, miR-29a-5p, miR-126-3p, miR-146b-5p, miR-182-5p, miR-184, miR-185-3p, miR-187-3p, miR-208b-3p, miR-365a-5p”. For the same compound, the Cmax total ([3]; Supplementary Table 1) was 16.6 µM and the Cmax total ([3]; Table 1) was 16.60 µM.

With `CC(=O)[C@]1(O)Cc2c(O)c3c(c(O)c2[C@@H](O[C@H]2C[C@H](N)[C@H](O)[C@H](C)O2)C1)C(=O)c1ccccc1C3=O` [Idarubicin] the “Cell index (CI) MEC” value ([1]; hiPSC-CM, 72-hour treatment, lowest concentration causing at least 20% change from baseline) was 0.1 µM, the “RTCA, MEC (CI)” value ([1]; hiPSC-CM) was 0.1 µM (CI, BR) and the “Beating Rate MEC” value ([1]; human, 72 h) was 0.1 µM. The “Beating rate (BR) MEC” value ([1]; human, 72 h) was 0.1 µM, the “Cell Index MEC” value ([1]; human, 72 h) was 0.1 µM and the “Contractility Amplitude MEC” value ([1]; human, 72 h) was 1 µM. The “Field Potential Duration MEC” value ([1]; human, 72 h) was 0.1 µM, the “RTCA, MEC (BR)” value ([1]; human, 72 h) was 0.1 µM (CI, BR) and the “Spike Amplitude (SA) MEC” value ([1]; human, 72 h) was 0.1 µM. For the same compound, the “miRNAs hiPSC-CM pellet, MEC overall” value [2] was 0.3 µM, the “miRNAs upregulated at the MEC overall (hiPSC-CM pellet)” value [2] was “miR-96 -5p, miR-126-3p, miR-133b, miR-185-3p” and the fold induction at 0.1 µM [2, 4] was 4.5. For the same compound, the fold induction at 0.3 µM [2, 4] was 5.8, the fold induction at 1 µM [2, 4] was 3.5 and the fold induction at 3 µM [2, 4] was 0.2. The fold induction at 0.1 µM [2, 5] was 1.2, the fold induction at 0.3 µM [2, 5] was 4.4 and the fold induction at 1 µM [2, 5] was 1.2. The fold induction at 3 µM [2, 5] was 3, the fold induction at 0.1 µM [2, 6] was 9 and the fold induction at 0.3 µM [2, 6] was 21.3. For the same compound, the fold induction at 1 µM [2, 6] was 53.4, the fold induction at 3 µM [2, 6] was 0.8 and the fold induction at 0.1 µM [2, 7] was 1. For the same compound, the fold induction at 0.3 µM [2, 7] was 1.3, the fold induction at 1 µM [2, 7] was 0.7 and the fold induction at 3 µM [2, 7] was 1.1. For the same compound, the fold induction at 0.1 µM [2, 8] was 0.5, the fold induction at 0.3 µM [2, 8] was 2.5 and the fold induction at 1 µM [2, 8] was 1.2. The fold induction at 3 µM [2, 8] was 10.9, the fold induction at 0.1 µM [2, 9] was 3.5 and the fold induction at 0.3 µM [2, 9] was 7.3. It also gave a fold induction at 1 µM [2, 9] of 2, a fold induction at 3 µM [2, 9] of 3.4 and a fold induction at 0.1 µM [2, 10] of 0.03. The fold induction at 0.3 µM [2, 10] was 0.1, the fold induction at 1 µM [2, 10] was 0.4 and the fold induction at 3 µM [2, 10] was 0.7. It also gave a fold induction at 0.1 µM [2, 11] of 1.6, a fold induction at 0.3 µM [2, 11] of 1.3 and a fold induction at 1 µM [2, 11] of 1. For the same compound, the fold induction at 0.1 µM [2, 12] was 9, the fold induction at 0.3 µM [2, 12] was 8.5 and the fold induction at 1 µM [2, 12] was 2.9. The fold induction at 3 µM [2, 12] was 1.9, the fold induction at 0.1 µM [2, 13] was 0.5 and the fold induction at 0.3 µM [2, 13] was 0.6. It also gave a fold induction at 1 µM [2, 13] of 0.8, a fold induction at 3 µM [2, 13] of 2 and a fold induction at 0.1 µM [2, 14] of 3.5. The fold induction at 0.3 µM [2, 14] was 2.1, the fold induction at 1 µM [2, 14] was 1.1 and the fold induction at 3 µM [2, 14] was 3.4. It also gave a fold induction at 0.1 µM ([2]; read-out: hsa-miR-[…] change) of 1, a fold induction at 0.3 µM ([2]; read-out: hsa-miR-[…] change) of 1.1 and a fold induction at 1 µM ([2]; read-out: hsa-miR-[…] change) of 0.7. For the same compound, the fold induction at 3 µM ([2]; read-out: hsa-miR-[…] change) was 3.4, the Cmax total ([3]; Supplementary Table 1) was 0.12 to 3.8 µM and the Cmax total ([3]; Table 1) was 0.12 to 3.80 µM.
